The numbers were not newly measured in publication PMC1403760 (BMC Pharmacology, 2006), which cites them from elsewhere.

What is called EC50 is the midpoint of the concentration-response curve.

This data set deals with HEK cells. Also noted: method as in PMID 12238779. To be noted: in these (HEK) cells; read-out: EC50 of forskolin.

`C=C[C@@]1(C)CC(=O)[C@]2(O)[C@@]3(C)[C@@H](O)CCC(C)(C)[C@@H]3[C@H](O)[C@H](OC(C)=O)[C@@]2(C)O1` [forskolin]: the concentration giving a half-maximal response (EC50) is 10 µM.
